# Test system: nucleoside diphosphate kinase
# Assay: Michaelis constant Km of uridine triphosphate synthesis using
# Assay type: biochemical, rat
# Conditions: uridine diphosphate as substrate, adenosine triphosphate as phosphate donor, 30° C., Hanes-Woolf plot
# Experimental: The Michaelis constant Km can be determined through determination of the dependence of the initial enzyme reaction velocity on the substrate concentration in accordance with the method reported by Agarwal et al. (described in Methods of Enzymology, 1978, Vol. 51, pp. 483-491). (D4-1) in a purified form is used for the measurement of the Michaelis constant Km. The inhibitory concentration IC50 is determined by the method described above. […]
# (D4-1-2) obtained in Preparation 8 was dissolved in 890 μL of aqueous solution 7 (50 mM phosphate buffer (pH of 7.5, 25° C.) containing 5 mM magnesium chloride and 100 mM adenosine triphosphate (available from Sigma-Aldrich Corporation)) in a 1.5 mL-tube. […] The supernatant (80 μL) was analyzed by HPLC, and the peak areas of uridine triphosphate were recorded.
# Solutions were prepared by changing the molar concentration of sodium uridine diphosphate in substrate solution [2-1] to 5 mM (substrate solution [2-2]), 2 mM (substrate solution [2-3]), 1 mM (substrate solution [2-4]), and 0.3 mM (substrate solution [2-5]). […] The peak areas of uridine triphosphate were recorded for enzyme reaction solutions (IV-2-2) to (IV-2-5) in a similar manner for enzyme reaction solution (IV-2-1). […]
structure (smiles),measurement,value
O=c1ccn([C@@H]2O[C@H](COP(=O)(O)OP(=O)(O)O)[C@@H](O)[C@H]2O)c(=O)[nH]1 [uridine diphosphate],Km,250 µM
